Test results reported in PMC9679702, “BI 456906: Discovery and preclinical pharmacology of a novel GCGR/GLP-1R dual agonist with robust anti-obesity efficacy” (Molecular Metabolism, 2022).
Values belong to the compound of their own block, whether it stands above or below them.

Columns and labels:
[1] = biological target: endogenous mouse GLP-1R (mouse (endogenous in MIN6)) (UniProt O35659)
[2] = biological target: human glucagon-like peptide-1 receptor (human) (UniProt P43220)
[3] = biological target: human glucagon receptor (human) (UniProt P47871)
Chain of human glucagon receptor (human) (P47871 26-477): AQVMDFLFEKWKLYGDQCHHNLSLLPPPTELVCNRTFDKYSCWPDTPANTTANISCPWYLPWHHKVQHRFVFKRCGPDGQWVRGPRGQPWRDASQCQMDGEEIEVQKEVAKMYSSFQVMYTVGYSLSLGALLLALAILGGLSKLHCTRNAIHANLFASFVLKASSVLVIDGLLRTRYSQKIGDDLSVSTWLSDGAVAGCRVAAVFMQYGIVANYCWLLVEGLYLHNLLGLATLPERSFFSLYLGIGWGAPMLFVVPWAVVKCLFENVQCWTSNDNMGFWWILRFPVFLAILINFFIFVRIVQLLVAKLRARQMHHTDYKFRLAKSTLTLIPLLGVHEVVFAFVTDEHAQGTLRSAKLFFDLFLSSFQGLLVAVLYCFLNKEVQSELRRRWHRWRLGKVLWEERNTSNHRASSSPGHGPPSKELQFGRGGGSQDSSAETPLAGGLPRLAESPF

[4] = biological target: human glucagon-like peptide-1 receptor (human) (UniProt P43220); remark: listed apart in the source
[5] = biological target: human glucagon receptor (human) (UniProt P47871); remark: listed apart in the source
[6] = biological target: T1, Human GLP-1R (Homo sapiens, UniProt P43220); experiment: cAMP stimulation in CHO-K1 cells expressing human GLP-1R (AlphaScreen); type: cell-based; conditions: read-out: functional potency (EC50) in CHO-K1 cells, GLP-1R
T1 sequence (P43220 24-463): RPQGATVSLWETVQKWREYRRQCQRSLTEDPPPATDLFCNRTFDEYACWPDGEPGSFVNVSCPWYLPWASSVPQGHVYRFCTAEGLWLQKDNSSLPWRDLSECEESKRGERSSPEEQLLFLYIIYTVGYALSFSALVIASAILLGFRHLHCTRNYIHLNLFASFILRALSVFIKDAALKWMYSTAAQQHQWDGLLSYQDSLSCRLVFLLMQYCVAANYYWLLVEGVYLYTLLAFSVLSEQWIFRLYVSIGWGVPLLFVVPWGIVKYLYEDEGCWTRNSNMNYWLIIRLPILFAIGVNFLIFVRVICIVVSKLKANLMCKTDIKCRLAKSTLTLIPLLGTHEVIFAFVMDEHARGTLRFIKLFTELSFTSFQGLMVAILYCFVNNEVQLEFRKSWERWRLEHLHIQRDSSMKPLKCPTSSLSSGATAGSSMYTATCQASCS

[7] = biological target: T2, endogenous GCGR (Rattus norvegicus, UniProt P30082); experiment: cAMP stimulation in primary rat hepatocytes; type: cell-based; conditions: 0.1% BSA, Figure 1B, read-out: cAMP pEC50±SD, Rat Hepatocytes (converted)
T2 construct: endogenous in cells; host or cells: primary rat hepatocytes
T2 sequence (P30082 27-485): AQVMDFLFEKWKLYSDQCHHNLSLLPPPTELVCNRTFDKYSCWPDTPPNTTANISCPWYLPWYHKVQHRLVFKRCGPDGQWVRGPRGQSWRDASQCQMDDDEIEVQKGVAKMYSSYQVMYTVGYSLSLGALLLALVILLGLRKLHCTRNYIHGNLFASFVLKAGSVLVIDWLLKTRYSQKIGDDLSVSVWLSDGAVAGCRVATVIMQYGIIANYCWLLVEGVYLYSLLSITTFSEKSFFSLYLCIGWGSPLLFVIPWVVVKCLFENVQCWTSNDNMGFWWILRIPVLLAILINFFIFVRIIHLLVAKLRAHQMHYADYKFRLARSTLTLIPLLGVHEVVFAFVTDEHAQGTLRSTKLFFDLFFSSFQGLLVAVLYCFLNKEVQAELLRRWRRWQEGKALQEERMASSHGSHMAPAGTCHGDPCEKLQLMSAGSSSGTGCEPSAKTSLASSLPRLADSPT

[8] = biological target: T3, GCGR (Rattus norvegicus, UniProt P30082); experiment: Inhibition of glycogen synthesis in primary rat hepatocytes (14C-glucose incorporation); type: cell-based; conditions: 0.1% BSA, 22.5 mM glucose, 180 min, Figure 1B, read-out: GSi pIC50±SD, Rat Hepatocytes (converted)
T3 construct: endogenous in cells; host or cells: primary rat hepatocytes
T3 sequence (P30082 27-485): as above

[9] = biological target: T4, Human GCGR (Homo sapiens, UniProt P47871); experiment: cAMP stimulation in CHO-K1 cells expressing human GCGR (AlphaScreen); type: cell-based; conditions: read-out: functional potency (EC50) in CHO-K1 cells, GCGR
T4 sequence (P47871 26-477): as the sequence (P47871 26-477) above

[10] = biological target: T4, Human GCGR; experiment: CRE-induced luciferase activity, HEK293 CRE-luc2P cells, human GCGR, in plasma; type: cell-based; conditions: for EC50: n = 3
[11] = biological target: T1, Human GLP-1R; experiment: Ex vivo bioactivity assay, HEK cells with human GLP-1R and CRE-luciferase, 100% mouse plasma
[12] = biological target: T5, endogenous GCGR (Mus musculus, UniProt Q61606); experiment: cAMP stimulation in primary mouse hepatocytes; type: cell-based; conditions: 0.1% BSA, Figure 1B, read-out: cAMP pEC50±SD, Mouse Hepatocytes (converted)
T5 construct: endogenous in cells; host or cells: primary mouse hepatocytes
T5 sequence (Q61606 27-485): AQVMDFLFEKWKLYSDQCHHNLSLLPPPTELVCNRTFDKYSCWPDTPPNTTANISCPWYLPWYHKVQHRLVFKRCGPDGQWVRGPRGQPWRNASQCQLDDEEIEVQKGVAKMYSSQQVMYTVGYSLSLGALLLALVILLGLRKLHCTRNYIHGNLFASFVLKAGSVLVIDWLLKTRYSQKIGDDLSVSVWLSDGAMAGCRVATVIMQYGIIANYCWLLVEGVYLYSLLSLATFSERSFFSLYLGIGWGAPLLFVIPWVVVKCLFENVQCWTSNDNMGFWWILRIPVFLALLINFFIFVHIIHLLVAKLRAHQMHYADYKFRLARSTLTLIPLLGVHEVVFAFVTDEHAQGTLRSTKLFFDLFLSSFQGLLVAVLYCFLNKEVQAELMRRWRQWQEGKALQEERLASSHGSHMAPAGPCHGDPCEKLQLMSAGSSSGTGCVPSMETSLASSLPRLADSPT

[13] = biological target: T6, GLP-1R (Mus musculus, UniProt O35659); experiment: Intraperitoneal glucose tolerance test in lean mice, single dosing; type: in vivo; conditions: read-out: ED50 ipGTT
T6 construct: The acute potency of BI 456906 in engaging the GLP-1R was tested in lean mice after single dosing; tissue Janvier Labs; host or cells: whole animal: lean wild-type NMRI, C57BL6/J or B6J mice
T6 sequence (O35659 22-463): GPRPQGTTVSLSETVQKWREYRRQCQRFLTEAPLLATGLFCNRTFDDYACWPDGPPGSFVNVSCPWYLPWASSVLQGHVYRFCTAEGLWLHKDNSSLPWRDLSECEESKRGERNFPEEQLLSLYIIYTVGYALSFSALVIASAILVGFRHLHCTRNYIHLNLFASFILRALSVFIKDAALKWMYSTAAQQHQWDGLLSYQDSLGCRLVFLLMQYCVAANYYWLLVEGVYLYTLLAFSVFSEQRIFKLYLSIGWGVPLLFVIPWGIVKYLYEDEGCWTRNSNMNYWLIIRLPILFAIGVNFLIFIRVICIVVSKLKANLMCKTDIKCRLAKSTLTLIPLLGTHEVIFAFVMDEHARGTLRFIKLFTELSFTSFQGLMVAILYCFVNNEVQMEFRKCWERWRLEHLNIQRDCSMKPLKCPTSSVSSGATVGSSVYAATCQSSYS

[14] = biological target: T1, Human GLP-1R; experiment: CRE-induced luciferase activity, HEK293 CRE-luc2P cells, human GLP-1R, in plasma; type: cell-based; conditions: n = 3
[15] = Pharmacokinetics in Beagle dogs; type: in vivo; conditions: dog, SC injection, 10 nmol/kg, male Beagle dogs, N = 3, plasma, LC/MS/MS (Table S1)
Procedure: (§1) For pharmacokinetic analysis, male C57BL/6NRj mice (Janvier, France) were given a single intravenous (IV) or subcutaneous (SC) BI 456906 dose (20 nmol/kg; N = 3 per route). In addition, male Beagle dogs received an IV or SC dose of 5 nmol/kg or 10 nmol/kg (N = 3) BI 456906, respectively. Plasma samples were generated at different time points post dosing and stored at −20 °C until further analysis. Plasma concentrations of BI 456906 were measured using a liquid chromatography/tandem mass spectrometry (LC/MS/MS) method with a calibration range of 0.5–1000 nM on a QTRAP 6500+ (Sciex, Framingham, MA, USA). Samples were pre-treated with ethanol for protein precipitation before the analysis.

[16] = biological target: T6, GLP-1R; experiment: Acute gastric emptying (acetaminophen) in lean mice; type: in vivo
[17] = biological target: T6, GLP-1R; experiment: Inhibition of acute food intake in lean NMRI mice; type: in vivo; conditions: single SC dose, 24 h food intake
[18] = biological target: T7, endogenous GCGR (Homo sapiens, UniProt P47871); experiment: cAMP stimulation in primary human hepatocytes; type: cell-based; conditions: 0.1% BSA, Figure 1B, read-out: cAMP pEC50±SD, Human Hepatocytes (converted)
T7 construct: endogenous in cells; host or cells: primary human hepatocytes
T7 sequence (P47871 26-477): as the sequence (P47871 26-477) above

[19] = Energy expenditure study in diet-induced obese mice (indirect calorimetry, telemetry); type: in vivo
Procedure: Male C57BL/6J mice were obtained from Charles River Laboratories (Sulzfeld, Germany) at age 6–7 weeks. Animals were housed in groups of five in individually ventilated cages with a 12 h light/dark cycle (06:00–18:00) and were acclimatized for 1 week with ad libitum feeding. Animals were then fed a 45% HFD for 18 or 30 weeks, before randomization to groups with similar average bodyweight at Day −1. Animals were dosed QD with SC vehicle (25 mM phosphate-buffered saline) or BI 456906 (5, 10, or 20 nmol/kg) for 9 days, with energy metabolism, activity, and core body temperature measured each day. On Day 10, mice were sacrificed by cervical dislocation after a final bleeding by puncture of the retrobulbar venous plexus.
Energy metabolism was measured by indirect calorimetry. […] The mass flow of air through the respiratory cages and the concentrations of O2 and CO2 in inspired and expired air were measured every 10 min. […] Energy expenditure was analyzed by ANCOVA (see 2.16) for animals kept in single housing (dose groups 5 and 10 nmol/kg), applying statistical analysis using a general linear model framework including bodyweight as a covariate. […] Therefore, the regression-based ANCOVA was not calculated. Core body temperature and activity were measured by sensors (model 10TA10TA-F10; Data Sciences International, New Brighton, MA, USA) implanted in the peritoneal cavities. […]

[20] = biological target: T6, GLP-1R; experiment: Oral glucose tolerance test in lean mice, single dosing; type: in vivo
[21] = biological target: T8, endogenous mouse GLP-1R (Mus musculus, UniProt O35659); experiment: cAMP stimulation in mouse insulinoma MIN6 cells; type: cell-based
T8 construct: The EC50 for the endogenous mouse GLP-1R was assessed in the insulinoma cell line MIN6; endogenous in cells; host or cells: MIN6 mouse insulinoma cells
T8 sequence (O35659 22-463): T6 sequence (O35659 22-463)

[22] = Pharmacokinetics in mice; type: in vivo
Procedure: as §1

[23] = biological target: T4, Human GCGR; experiment: Ex vivo bioactivity assay, HEK cells with human GCGR and CRE-luciferase, 100% mouse plasma; conditions: DIO mice, plasma at study end, maximal dose of 30 nmol/kg

Chain of human glucagon-like peptide-1 receptor (human) (P43220 24-463): as the sequence (P43220 24-463) above

EC50 of cAMP generation, mouse insulinoma MIN6 cells (endogenous receptor) [1]: 0.06 nM
Compound: glucagon-like peptide-1

EC50 in the CRE-luciferase assay, HEK293 CRE-luc2P cells expressing recombinant GLP-1R, 100% human plasma [2]: 1 nM | EC50 in the CRE-luciferase assay, HEK293 CRE-luc2P cells expressing recombinant GLP-1R, 100% mouse plasma [2]: 1.6 nM | EC50 in the CRE-luciferase assay, HEK293 CRE-luc2P cells expressing recombinant GCGR, 0.5% human plasma [3]: 0.29 nM | EC50 in the CRE-luciferase assay, HEK293 CRE-luc2P cells expressing recombinant GCGR, 0.5% mouse plasma [3]: 0.17 nM | EC50 in the CRE-luciferase assay, HEK293 CRE-luc2P cells expressing recombinant GCGR, 100% human plasma [3]: 8.3 nM | EC50 in the CRE-luciferase assay, HEK293 CRE-luc2P cells expressing recombinant GCGR, 100% mouse plasma [3]: 16 nM | EC50 of cAMP generation (AlphaScreen cAMP assay), CHO-K1 cells expressing human GLP-1R, 0.1% BSA [4]: 0.33 nM | EC50 of cAMP generation (AlphaScreen cAMP assay), CHO-K1 cells expressing human GCGR, 0.1% BSA [5]: 0.52 nM | EC50 of cAMP generation, mouse insulinoma MIN6 cells (endogenous receptor) [1]: 0.36 nM
Compound: BI 456906 (peptide)

Compound: CC[C@H](C)[C@H](NC(=O)[C@H](Cc1ccccc1)NC(=O)[C@H](CC(=O)O)NC(=O)[C@H](CCCCN)NC(=O)[C@H](C)NC(=O)[C@H](C)NC(=O)[C@H](CCCNC(=N)N)NC(=O)[C@H](CCC(=O)O)NC(=O)[C@H](CC(=O)O)NC(=O)[C@H](CC(C)C)NC(=O)[C@H](Cc1ccc(O)cc1)NC(=O)[C@H](CCCCN)NC(=O)[C@H](CO)NC(=O)[C@H](Cc1ccc(O)cc1)NC(=O)[C@H](CC(=O)O)NC(=O)[C@H](CO)NC(=O)[C@@H](NC(=O)[C@H](Cc1ccccc1)NC(=O)[C@@H](NC(=O)CNC(=O)[C@H](CCC(N)=O)NC(=O)C1(NC(=O)[C@@H](N)Cc2c[nH]cn2)CCC1)[C@@H](C)O)[C@@H](C)O)C(=O)N[C@@H](CCCCNC(=O)CNC(=O)CNC(=O)[C@H](CO)NC(=O)CNC(=O)[C@H](CO)NC(=O)CNC(=O)CC[C@H](NC(=O)CCCCCCCCCCCCCCCCC(=O)O)C(=O)O)C(=O)N[C@@H](Cc1c[nH]c2ccccc12)C(=O)N[C@@H](CC(C)C)C(=O)N[C@@H](CCC(=O)O)C(=O)N[C@@H](CO)C(=O)N[C@@H](C)C(N)=O [BI 456906]
EC50 [6]: 0.33 nM | EC50 [7]: 18.6 nM | IC50 [8]: 0.437 nM | EC50 [9]: 0.52 nM | fold less potent at the GCGR in relation to endogenous glucagon ([10]; 0.5% human and mouse plasma): ~6 fold | EC50 ([10]; Human GCGR HEK293 Cre-Luc EC50, Human Plasma 0.5%, 0.5% human plasma in KRBH, 4 h 37 °C): 0.29 nM | EC50 ([10]; Human GCGR HEK293 Cre-Luc EC50, Human Plasma 100%, 100% human plasma, 4 h 37 °C): 8.3 nM | EC50 ([10]; Human GCGR HEK293 Cre-Luc EC50, Mouse Plasma 0.5%, 0.5% mouse plasma in KRBH, 4 h 37 °C): 0.17 nM | EC50 ([10]; Human GCGR HEK293 Cre-Luc EC50, Mouse Plasma 100%, 100% mouse plasma, 4 h 37 °C): 16 nM | EC50 ([10]; Human GCGR HEK293 Cre-Luc pEC50±SD, Human Plasma 0.5%, 0.5% human plasma): 0.288 nM | EC50 ([10]; Human GCGR HEK293 Cre-Luc pEC50±SD, Human Plasma 100%, 100% human plasma): 8.32 nM | EC50 ([10]; Human GCGR HEK293 Cre-Luc pEC50±SD, Mouse Plasma 0.5%, 0.5% mouse plasma): 0.17 nM | EC50 ([10]; Human GCGR HEK293 Cre-Luc pEC50±SD, Mouse Plasma 100%, 100% mouse plasma): 15.5 nM | EC50 [11]: 2.4 nM | ex vivo bioequivalence over EC50, GLP-1R ([11]; DIO mice, plasma at study end, maximal dose of 30 nmol/kg): less than 1000 fold | EC50 [12]: 407 nM | ED50 [13]: 0.004 µmol/kg | EC50 ([14]; Human GLP-1R HEK293 Cre-Luc EC50, Mouse Plasma 100%, 100% mouse plasma, 4 h 37 °C): 1.6 nM | EC50 ([14]; Human GLP-1R HEK293 Cre-Luc pEC50±SD, Human Plasma 0.5%, 0.5% human plasma): 0.0148 nM | EC50 ([14]; Human GLP-1R HEK293 Cre-Luc pEC50±SD, Human Plasma 100%, 100% human plasma): 1 nM | EC50 ([14]; Human GLP-1R HEK293 Cre-Luc pEC50±SD, Mouse Plasma 0.5%, 0.5% mouse plasma): 0.00759 nM | EC50 ([14]; Human GLP-1R HEK293 Cre-Luc pEC50±SD, Mouse Plasma 100%, 100% mouse plasma): 1.62 nM | Tmax [15]: 51 h | MRT ([15]; read-out: mean residence time): 140 h | ED50 ([16]; mouse, sc): 0.041 µmol/kg | inhibition of gastric emptying, effective doses (in words) ([16]; reduced acetaminophen excursion, single SC dose, lean mice): effective only at higher doses of 100 and 300 nmol/kg | ED50 [17]: 0.09 µmol/kg | EC50 [18]: 537 nM | energy expenditure (in words) ([19]; DIO mice, 5, 10 or 20 nmol/kg SC QD for 9 days, indirect calorimetry): dose-dependent increase in energy expenditure | core body temperature and activity (in words) ([19]; DIO mice, therapeutic doses, implanted sensors): did not increase core body temperature or activity | ED50 [20]: 0.0021 µmol/kg | EC50 [21]: 0.36 nM | terminal half-life in mouse plasma compared with semaglutide (in words) ([22]; mouse pharmacokinetic profiles (Table S1)): longer terminal half-life | Tmax ([22]; mouse, SC injection, 20 nmol/kg single dose, male C57BL/6NRj mice, N = 3, plasma, LC/MS/MS (Table S1)): 7 h | MRT ([22]; mouse, SC injection, 20 nmol/kg single dose, male C57BL/6NRj mice, N = 3, plasma, LC/MS/MS (Table S1), read-out: mean residence time): 44 h | ex vivo bioequivalence over EC50, GCGR [23]: < 100 fold
